Test results reported in US11591323B2, “Muscarinic agonists as non-steroidal and non-opioid analgesics and methods of use thereof” (Barry University, priority 2019, dated 2023).

How the values were obtained:
Parameters in all cases: host or cells: CHO cells, stably transfected
M4 muscarinic receptor [1] = target: T1, M4 muscarinic receptor (Homo sapiens, UniProt P08173); test: inhibition of forskolin-stimulated cAMP, M4 CHO cells (M4Gi); type: cell-based; conditions: M4 (↓cAMP), preferential response, relative to carbachol; Tables 2, 3, 7
T1 sequence (P08173 1-479): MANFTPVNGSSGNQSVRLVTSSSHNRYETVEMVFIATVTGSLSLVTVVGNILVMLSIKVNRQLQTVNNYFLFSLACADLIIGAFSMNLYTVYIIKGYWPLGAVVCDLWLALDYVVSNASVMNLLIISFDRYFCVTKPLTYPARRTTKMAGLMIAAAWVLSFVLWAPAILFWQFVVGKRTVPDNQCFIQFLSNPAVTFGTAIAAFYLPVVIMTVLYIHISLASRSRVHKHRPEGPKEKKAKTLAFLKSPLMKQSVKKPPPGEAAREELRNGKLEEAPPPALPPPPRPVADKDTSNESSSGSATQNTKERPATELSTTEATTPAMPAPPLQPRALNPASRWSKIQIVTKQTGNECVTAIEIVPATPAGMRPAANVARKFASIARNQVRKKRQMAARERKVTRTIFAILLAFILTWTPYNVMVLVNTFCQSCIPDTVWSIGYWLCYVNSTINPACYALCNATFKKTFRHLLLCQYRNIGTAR

M1 muscarinic receptor [2] = target: T2, M1 muscarinic receptor (Homo sapiens, UniProt P11229); test: [3H]NMS competition binding, M1 CHO membranes; conditions: competition with 1 nM [3H]NMS; read-out: Inhibition constants (Ki) as negative logarithms, M1 (converted)
T2 sequence (P11229 1-460): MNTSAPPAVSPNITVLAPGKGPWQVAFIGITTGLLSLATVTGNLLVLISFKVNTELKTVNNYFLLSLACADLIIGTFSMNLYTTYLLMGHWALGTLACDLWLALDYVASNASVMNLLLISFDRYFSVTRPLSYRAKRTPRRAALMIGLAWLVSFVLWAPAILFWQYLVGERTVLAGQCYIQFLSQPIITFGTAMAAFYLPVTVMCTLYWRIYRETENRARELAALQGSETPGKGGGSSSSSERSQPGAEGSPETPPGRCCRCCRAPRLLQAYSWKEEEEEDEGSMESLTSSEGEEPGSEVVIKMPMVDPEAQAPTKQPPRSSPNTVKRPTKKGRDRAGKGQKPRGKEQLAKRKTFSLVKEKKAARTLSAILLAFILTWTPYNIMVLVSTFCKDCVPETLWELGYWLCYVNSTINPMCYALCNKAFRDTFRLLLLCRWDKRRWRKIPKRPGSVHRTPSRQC

M5 muscarinic receptor [3] = target: T3, M5 muscarinic receptor (Homo sapiens, UniProt P08912); test: [3H]NMS competition binding, M5 CHO membranes; conditions: competition with 1 nM [3H]NMS; read-out: Inhibition constants (Ki) as negative logarithms, M5 (converted)
T3 sequence (P08912 1-532): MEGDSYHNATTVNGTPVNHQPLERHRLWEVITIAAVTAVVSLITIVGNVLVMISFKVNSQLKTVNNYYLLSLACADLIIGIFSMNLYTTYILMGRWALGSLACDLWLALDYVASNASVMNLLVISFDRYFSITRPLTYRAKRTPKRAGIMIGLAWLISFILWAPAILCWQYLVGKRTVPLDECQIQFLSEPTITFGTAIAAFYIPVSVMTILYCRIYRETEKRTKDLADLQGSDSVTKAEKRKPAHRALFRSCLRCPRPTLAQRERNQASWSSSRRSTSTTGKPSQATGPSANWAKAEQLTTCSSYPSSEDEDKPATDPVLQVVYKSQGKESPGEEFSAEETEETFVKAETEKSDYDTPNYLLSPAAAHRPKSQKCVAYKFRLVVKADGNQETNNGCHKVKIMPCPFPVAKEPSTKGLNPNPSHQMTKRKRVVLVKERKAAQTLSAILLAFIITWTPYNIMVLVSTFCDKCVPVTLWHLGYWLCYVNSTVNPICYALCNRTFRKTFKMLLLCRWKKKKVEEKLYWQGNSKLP

M3 muscarinic receptor [4] = target: T4, M3 muscarinic receptor (Homo sapiens, UniProt P20309); test: [3H]NMS competition binding, M3 CHO membranes; conditions: competition with 1 nM [3H]NMS; read-out: Inhibition constants (Ki) as negative logarithms, M3 (converted)
M1 muscarinic receptor [5] = target: T2, M1 muscarinic receptor; test: accumulation of inositol phosphates IPX, M1 CHO cells (M1Gq); type: cell-based; conditions: M1 (↑IPX), preferential response, relative to carbachol; Tables 2, 3, 7
M3 muscarinic receptor [6] = target: T4, M3 muscarinic receptor; test: accumulation of IPX, M3 CHO cells (M3Gq); type: cell-based; conditions: M3 (↑IPX), preferential response, relative to carbachol; Tables 2, 3, 7
M2 muscarinic receptor [7] = target: T5, M2 muscarinic receptor (Homo sapiens, UniProt P08172); test: inhibition of forskolin-stimulated cAMP, M2 CHO cells (M2Gi); type: cell-based; conditions: M2 (↓cAMP), preferential response, relative to carbachol; Tables 2, 3, 7
T5 sequence (P08172 1-466): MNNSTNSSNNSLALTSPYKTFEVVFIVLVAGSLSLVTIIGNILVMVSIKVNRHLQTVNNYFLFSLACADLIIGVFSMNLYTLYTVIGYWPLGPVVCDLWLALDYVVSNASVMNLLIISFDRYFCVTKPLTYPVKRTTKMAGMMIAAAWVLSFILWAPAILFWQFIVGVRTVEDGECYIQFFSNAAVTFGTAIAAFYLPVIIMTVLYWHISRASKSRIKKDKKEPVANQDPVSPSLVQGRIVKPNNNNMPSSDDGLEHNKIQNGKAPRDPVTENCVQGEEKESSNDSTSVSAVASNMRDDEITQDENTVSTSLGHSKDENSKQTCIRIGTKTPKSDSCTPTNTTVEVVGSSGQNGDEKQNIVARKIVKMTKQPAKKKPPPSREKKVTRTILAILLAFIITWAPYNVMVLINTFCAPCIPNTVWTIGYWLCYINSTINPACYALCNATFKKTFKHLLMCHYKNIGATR

M2 muscarinic receptor [8] = target: T5, M2 muscarinic receptor; test: [3H]NMS competition binding, M2 CHO membranes; conditions: competition with 1 nM [3H]NMS; read-out: Inhibition constants (Ki) as negative logarithms, M2 (converted)
M4 muscarinic receptor [9] = target: T1, M4 muscarinic receptor; test: [3H]NMS competition binding, M4 CHO membranes; conditions: competition with 1 nM [3H]NMS; read-out: Inhibition constants (Ki) as negative logarithms, M4 (converted)
M5 muscarinic receptor [10] = target: T3, M5 muscarinic receptor; test: accumulation of IPX, M5 CHO cells (M5Gq); type: cell-based; conditions: M5 (↑IPX), preferential response, relative to carbachol; Tables 2, 3, 7

T4 sequence (P20309 whole entry): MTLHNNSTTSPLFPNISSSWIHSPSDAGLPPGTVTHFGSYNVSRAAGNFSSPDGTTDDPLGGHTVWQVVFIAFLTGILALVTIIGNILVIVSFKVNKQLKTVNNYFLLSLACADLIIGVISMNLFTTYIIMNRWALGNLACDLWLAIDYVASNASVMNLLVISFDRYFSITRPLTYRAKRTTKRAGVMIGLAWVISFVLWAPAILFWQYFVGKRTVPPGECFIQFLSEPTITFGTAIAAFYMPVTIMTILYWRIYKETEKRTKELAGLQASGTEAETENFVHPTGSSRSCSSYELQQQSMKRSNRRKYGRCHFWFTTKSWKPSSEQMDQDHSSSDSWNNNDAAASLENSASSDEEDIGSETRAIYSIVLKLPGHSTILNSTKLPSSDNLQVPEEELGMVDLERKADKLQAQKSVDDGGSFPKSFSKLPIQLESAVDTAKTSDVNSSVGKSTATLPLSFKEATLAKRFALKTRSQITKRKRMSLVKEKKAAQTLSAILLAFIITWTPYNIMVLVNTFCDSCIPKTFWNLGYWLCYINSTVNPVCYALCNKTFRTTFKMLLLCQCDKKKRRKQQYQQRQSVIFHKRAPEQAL

Q: How did the RAi (M4 muscarinic receptor [1]) turn out when Cc1csc(CN2CC=CCC2)c1.Cl [Compound 6E, 1-[(4-methylthiophen-2-yl)methyl]-1,2,3,6-tetrahydropyridin-1-ium chloride] was run?
A: 0

Q: And the Ki (M1 muscarinic receptor [2])?
A: 31.6 µM

Q: And the Ki (M5 muscarinic receptor [3])?
A: 31.6 µM

Q: And the Ki (M3 muscarinic receptor [4])?
A: 50.1 µM

Q: What about the RAi (M1 muscarinic receptor [5]) of the same compound?
A: 0

Q: And the RAi (M3 muscarinic receptor [6])?
A: 0

Q: What about the RAi (M2 muscarinic receptor [7]) of the same compound?
A: 0

Q: And the Ki (M2 muscarinic receptor [8])?
A: 12.6 µM

Q: What about the Ki (M4 muscarinic receptor [9]) of the same compound?
A: 31.6 µM

Q: What about the RAi (M5 muscarinic receptor [10]) of the same compound?
A: 0
